Source: patent publication US8623862B2, “Derivatives of N-[(1H-pyrazol-1-yl)aryl]-1H-indole or 1H-indazole-3-carboxamide, preparation thereof and applications thereof in therapeutics” (Sanofi, priority 2011, dated 2014)

Tests used:
platelet aggregation [1] = assay: Inhibition of platelet aggregation in vitro (rat blood); type: cell-based; settings: 0.1 h; rat platelet-rich plasma, ADP-induced aggregation, area under the curve of absorbance for 6 minutes; read-out: Inhibition of platelet aggregation in vitro (rat blood);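 also: aggregation induced by ADP added as 4 µL of a 250 µM solution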
Procedure, shortened: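 Platelet-rich plasma from male Sprague-Dawley rats (250-300 g), prepared by centrifugation at 300 g for 5 minutes. Aggregation measured at 37° C in an aggregometer. Percentage inhibition derived from area under the absorbance curve over 6 minutes.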

platelet aggregation [2] = assay: Inhibition of platelet aggregation ex vivo (rat blood); type: in vivo; settings: Platelet, 2 h; rat, gavage (oral), 10 mg/kg, two hours before taking the sample; read-out: Inhibition of platelet aggregation ex vivo (rat blood) in %, Gavage (oral) 10 mg/kg
Description: Inhibition of Platelet Aggregation Ex Vivo (Rat Blood)
Male rats of the Sprague-Dawley strain, weighing 250-300 g, are used at a rate of 6 animals per batch. Each test compound is diluted in a solution of glucose-containing water (glucose 5%) containing 5% of cremophore and 3% of glycofurol.
The compounds according to the invention are administered by stomach tube (10 ml/kg at 1 mg/ml) two hours before taking the sample or by infusion (1 ml/kg at 10 mg/ml) two hours before taking the sample.
The platelet-rich plasma (PRP) is obtained by centrifugation of the blood at 300 g for 5 minutes, and the measurements of platelet aggregation are performed as described above.
The results are calculated using the area under the curve of absorbance measured for 6 minutes, and expressed as percentage (%) of inhibition.

Work on `CCCC(=O)c1cnn(-c2ccc(NC(=O)c3cn(CC(=O)N4CCN(CC(C)=O)CC4)c4ccc(Cl)cc34)cc2)c1C.Cl` [Compound 276, N-[4-(4-Butyryl-5-methyl-1H-pyrazol-1-yl)phenyl]-5-chloro-1-{2-oxo-2-[4-(2-oxopropyl)piperazin-1-yl]ethyl}-1H-indole-3-carboxamide hydrochloride] yielded an IC50 (platelet aggregation [1]) of 0.22 µM, an inhibition at 10 mg/kg (platelet aggregation [2]) of 49.9% and a melting point of 248 °C.
